Results taken from publication PMC11570842 (The Journal of Biological Chemistry, 2024).

Target: T1, Ubp2 (Saccharomyces cerevisiae, UniProt Q01476)
T1 sequence (Q01476 1-1272): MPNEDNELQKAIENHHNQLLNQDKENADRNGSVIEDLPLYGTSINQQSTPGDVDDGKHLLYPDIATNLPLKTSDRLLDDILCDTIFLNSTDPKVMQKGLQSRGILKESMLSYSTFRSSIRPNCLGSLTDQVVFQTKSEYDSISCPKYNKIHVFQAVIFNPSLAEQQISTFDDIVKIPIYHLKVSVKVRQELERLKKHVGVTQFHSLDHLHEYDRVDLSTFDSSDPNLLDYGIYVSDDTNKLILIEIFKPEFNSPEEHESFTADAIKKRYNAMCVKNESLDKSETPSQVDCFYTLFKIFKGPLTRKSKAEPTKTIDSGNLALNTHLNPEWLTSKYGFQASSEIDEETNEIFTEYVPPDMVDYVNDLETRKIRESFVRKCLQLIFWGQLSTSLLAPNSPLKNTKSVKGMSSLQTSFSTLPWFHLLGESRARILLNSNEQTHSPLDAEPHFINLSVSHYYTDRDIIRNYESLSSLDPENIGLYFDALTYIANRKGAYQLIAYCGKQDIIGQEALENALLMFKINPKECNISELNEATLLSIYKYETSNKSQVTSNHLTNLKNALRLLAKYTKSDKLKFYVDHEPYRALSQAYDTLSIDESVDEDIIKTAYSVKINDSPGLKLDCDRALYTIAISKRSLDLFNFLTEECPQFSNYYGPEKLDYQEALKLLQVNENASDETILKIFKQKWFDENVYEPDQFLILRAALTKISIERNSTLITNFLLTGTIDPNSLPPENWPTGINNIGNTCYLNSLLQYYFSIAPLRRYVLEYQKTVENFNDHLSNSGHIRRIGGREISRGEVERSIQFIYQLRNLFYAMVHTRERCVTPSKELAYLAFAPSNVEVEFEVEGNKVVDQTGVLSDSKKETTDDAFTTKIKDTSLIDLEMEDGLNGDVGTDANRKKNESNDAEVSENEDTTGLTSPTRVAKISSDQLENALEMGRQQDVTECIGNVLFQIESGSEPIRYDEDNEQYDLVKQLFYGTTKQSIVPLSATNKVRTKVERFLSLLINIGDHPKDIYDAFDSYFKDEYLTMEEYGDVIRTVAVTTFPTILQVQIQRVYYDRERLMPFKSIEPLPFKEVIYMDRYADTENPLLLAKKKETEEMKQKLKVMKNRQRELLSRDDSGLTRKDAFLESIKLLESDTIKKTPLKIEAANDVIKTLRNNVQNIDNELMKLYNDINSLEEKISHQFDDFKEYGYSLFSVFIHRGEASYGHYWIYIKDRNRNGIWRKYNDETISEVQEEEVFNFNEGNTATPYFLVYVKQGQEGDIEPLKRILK
Details: 100 uM PR-619, 5 min preincubation; 0.75 uM Ub-Rho, 50 mM Tris-HCl pH 7.5, 150 mM NaCl, 30 C; activity abrogated

N#CSc1cc(SC#N)c(N)nc1N [PR-619] was tested, and the “fluorogenic Ub-rhodamine 110 cleavage” value was “pan DUB inhibitor PR-619 and the cysteine alkylator iodoacetamide (IAA) abrogated Ubp2 enzymatic activity”.
